In US6545031B1, “Endothelin receptor antagonists” (SmithKline Beecham Corporation, priority 1995, dated 2003):

melting point | Structure (SMILES)
213 to 214 °C | CCCCn1ncc(/C=C(\Cc2cc3c(cc2OC)OCO3)C(=O)O)c1-c1ccc(OC)cc1OCc1ccccc1C(=O)O [Example 1, (E)-alpha-[[1-n-Butyl-5-[2-[(2-carboxyphenyl)methoxy]-4-methoxyphenyl]-1H-pyrazol-4-yl]methylene]-6-methoxy-1,3-benzodioxole-5-propanoic Acid]
226 to 227 °C | CCCCn1cc(/C=C(\Cc2cc3c(cc2OC)OCO3)C(=O)O)c(-c2ccc(OC)cc2OCc2ccccc2C(=O)O)n1 [Example 2, (E)-alpha-[[1-n-Butyl-3-[2-[(2-carboxyphenyl)methoxy]-4-methoxyphenyl]-1H-pyrazol-4-yl]methylene]-6-methoxy-1,3-benzodioxole-5-propanoic Acid]
